From patent US7939672B2, “Phenylacetate derivatives or pharmaceutically acceptable salts thereof, preparation method thereof and composition for prevention or treatment of diseases induced by activation of T-type calcium ion channel containing the same as an active ingredient” (Korea Institute of Science and Technology, priority 2008, dated 2011)
Read-outs that look alike come from different tables or passages of the source.

Assays:
[1] = molecular target: T1, α1G T-type calcium ion channels (Homo sapiens, UniProt O43497); assay: Ion current inhibition on T-type calcium ion channels using a patch clamp (HEK293 cells); assay type: cell-based
T1 construct: host or cells: HEK293
Procedure: Measurement of Ion Current Inhibition on T-Type Calcium Ion Channels Using a Patch Clamp
(1) Cell Culture and Preparation
20 hours prior to the use of the medium for expression of hERG channels, the Tet-expression system was activated by treating the medium with 1 μg/ml doxycycline.
The cells in the experiment was passaged once in three days, and collected when the cells were grown to 50˜80% confluency in the Petri dish. […] Trypsin was removed using a centrifuge, an extracellular solution was added, and cells floating automatically by a Patchliner were used at room temperature.
(2) Experimental Solution
As a solution composition for measurement of activation of T-type calcium ion channels, 140 mM NaCl, 2 mM CaCl2, 4 mM KCl, 1 mM MgCl2, 5 mM D-glucose, and 10 mM HEPES (pH 7.4) were used for an extracellular solution, and 50 mM KCl, 10 mM NaCl, 60 mM KF, 2 mM MgCl2, 10 mM HEPES, and 20 mM EGTA (pH 7.2) were used for an intracellular solution. To maintain the pre-cellular state, a seal reinforced solution was added. When T-type calcium ion channel expression cells were used, an extracellular solution supplemented with 10 mM Ba^2+ was added and records about the result were made.
(3) Electro-Physiological Technique and Data Processing
The current was measured through an EPC10 amplifier (HEKA, Germany) by a precellular patch clamp technique using NPC©-16 Patchliner (Nanion Technologies, Germany). Cell suspensions and various experimental solutions were automatically aliquotted into chips (NPC-16 Chip, Nanion Technologies, Germany) by experimental devices. A cell membrane potential was fixed at −100 mV for measurement of activation of T-type calcium ion channels. When a low polarization was performed at −20 mV for 300 ms, the inward current was measured at ten-second intervals.
The IC50 graphs and values were obtained from the automatic calculation of inhibition rates of the peak current using an experimental data analysis program IGOR Pro (WaveMetrics, USA).

[2] = test system: spinal nerve ligation animal model; conditions: Barton et al. 2005; cited from earlier work
[3] = test system: T-type calcium ion channel; conditions: T-type versus L-type; cited from earlier work
[4] = patch clamp, HEK293 α1G cells, unit nM, read-out: IC50 (μM), cells marked
[5] = read-out: % inhibition rate (10 μM), 10 μM, peak inward current, HEK293 cells expressing α1G T-type channel
[6] = patch clamp, HEK293 α1G cells, 10 nM to 100 μM, read-out: IC50

T1 sequence (O43497 whole entry): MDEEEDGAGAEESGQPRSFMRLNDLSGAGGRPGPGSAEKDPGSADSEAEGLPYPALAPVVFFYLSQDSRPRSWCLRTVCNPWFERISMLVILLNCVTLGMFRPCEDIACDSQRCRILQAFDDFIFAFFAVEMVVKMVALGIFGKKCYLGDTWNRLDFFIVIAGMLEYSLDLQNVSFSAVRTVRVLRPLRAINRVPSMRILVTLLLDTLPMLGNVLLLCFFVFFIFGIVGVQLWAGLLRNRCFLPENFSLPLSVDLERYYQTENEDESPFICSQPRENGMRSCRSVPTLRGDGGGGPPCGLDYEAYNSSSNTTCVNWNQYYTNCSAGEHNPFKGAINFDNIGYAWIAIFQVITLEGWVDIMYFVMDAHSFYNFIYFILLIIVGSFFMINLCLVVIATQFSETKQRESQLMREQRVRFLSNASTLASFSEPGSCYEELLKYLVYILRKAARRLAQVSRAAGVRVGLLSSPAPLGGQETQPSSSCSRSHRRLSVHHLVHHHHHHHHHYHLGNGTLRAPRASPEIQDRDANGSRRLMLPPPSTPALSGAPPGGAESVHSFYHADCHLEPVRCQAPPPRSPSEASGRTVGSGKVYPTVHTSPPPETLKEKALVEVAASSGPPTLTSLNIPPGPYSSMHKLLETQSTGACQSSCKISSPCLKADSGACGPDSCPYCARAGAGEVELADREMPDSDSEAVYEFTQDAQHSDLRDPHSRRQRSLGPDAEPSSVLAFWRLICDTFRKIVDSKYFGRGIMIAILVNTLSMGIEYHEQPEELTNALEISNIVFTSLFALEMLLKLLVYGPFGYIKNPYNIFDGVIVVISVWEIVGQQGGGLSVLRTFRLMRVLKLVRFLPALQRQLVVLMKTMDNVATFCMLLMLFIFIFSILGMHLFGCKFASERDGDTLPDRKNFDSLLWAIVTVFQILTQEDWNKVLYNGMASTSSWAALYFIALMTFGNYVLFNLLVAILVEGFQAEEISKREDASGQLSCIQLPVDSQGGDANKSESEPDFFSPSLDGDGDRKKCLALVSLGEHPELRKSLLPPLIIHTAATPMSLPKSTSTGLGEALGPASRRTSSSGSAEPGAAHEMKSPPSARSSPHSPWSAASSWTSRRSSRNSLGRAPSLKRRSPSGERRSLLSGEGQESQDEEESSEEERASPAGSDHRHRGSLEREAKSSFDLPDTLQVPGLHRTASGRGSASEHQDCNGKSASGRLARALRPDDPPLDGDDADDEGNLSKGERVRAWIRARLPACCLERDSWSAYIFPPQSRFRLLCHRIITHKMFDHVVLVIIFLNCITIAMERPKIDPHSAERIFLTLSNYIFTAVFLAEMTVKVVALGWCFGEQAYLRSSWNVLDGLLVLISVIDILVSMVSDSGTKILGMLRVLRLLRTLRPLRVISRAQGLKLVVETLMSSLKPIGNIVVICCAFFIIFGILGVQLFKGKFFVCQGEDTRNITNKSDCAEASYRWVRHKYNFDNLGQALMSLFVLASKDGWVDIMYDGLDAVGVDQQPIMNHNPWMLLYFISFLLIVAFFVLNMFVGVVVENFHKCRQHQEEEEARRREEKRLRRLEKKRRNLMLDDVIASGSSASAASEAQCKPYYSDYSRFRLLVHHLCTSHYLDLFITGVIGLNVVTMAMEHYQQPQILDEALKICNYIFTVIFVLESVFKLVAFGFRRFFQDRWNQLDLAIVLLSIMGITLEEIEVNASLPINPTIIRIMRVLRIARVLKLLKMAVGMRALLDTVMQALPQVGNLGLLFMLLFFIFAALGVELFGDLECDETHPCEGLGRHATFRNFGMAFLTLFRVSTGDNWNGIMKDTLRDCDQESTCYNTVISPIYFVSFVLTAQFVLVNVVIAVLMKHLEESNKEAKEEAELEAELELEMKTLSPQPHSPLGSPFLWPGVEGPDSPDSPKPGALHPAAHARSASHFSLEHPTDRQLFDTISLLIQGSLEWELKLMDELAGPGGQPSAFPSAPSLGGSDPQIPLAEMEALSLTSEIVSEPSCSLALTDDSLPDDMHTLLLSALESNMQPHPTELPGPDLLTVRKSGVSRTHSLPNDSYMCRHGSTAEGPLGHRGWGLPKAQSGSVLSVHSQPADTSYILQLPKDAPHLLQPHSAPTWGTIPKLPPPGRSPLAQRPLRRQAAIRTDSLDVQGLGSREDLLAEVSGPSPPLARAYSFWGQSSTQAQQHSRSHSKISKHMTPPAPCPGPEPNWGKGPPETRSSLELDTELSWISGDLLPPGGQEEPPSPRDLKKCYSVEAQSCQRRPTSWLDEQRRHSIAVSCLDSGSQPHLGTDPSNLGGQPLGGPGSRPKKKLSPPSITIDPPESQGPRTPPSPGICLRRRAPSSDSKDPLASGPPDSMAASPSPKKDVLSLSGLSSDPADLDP

| inhibition at 10 µM [1, 5] | IC50 [1, 6] | Compound | other results |
| --- | --- | --- | --- |
| 96.9 ± 0.59% |  | COC(=O)C(CCCN(C)CCCc1nc2ccccc2[nH]1)(c1ccc(Br)cc1)C(C)C (centres unmarked) [Embodiment 1, 5-{[3-(1H-benzimidazole-2-yl)propyl]methylamino}-2-(4-bromophenyl)-2-isopropylpentanoic acid methyl ester] | IC50 [1, 4]: 8.17 ± 0.48 nM |
| 93.5 ± 3.2% | 190 ± 1 nM | COC(=O)C(CCCN(C)CCCc1nc2ccccc2[nH]1)(c1ccc(OC)cc1)C(C)C (centres unmarked) [Embodiment 4] |  |
| 98.3 ± 0.9% | 250 ± 5 nM | CCOC(=O)C(CCCN(C)CCCc1nc2ccccc2[nH]1)(c1ccccc1)C(C)C (centres unmarked) [Embodiment 10] |  |
| 91.4 ± 0.4% | 100 ± 10 nM | CCOC(=O)C(CCCN(C)CCCc1nc2cc(C)c(C)cc2[nH]1)(c1ccccc1)C(C)C (centres unmarked) [Embodiment 11] |  |
| 94.2 ± 0.4% |  | COC(=O)C(CCCN(C)CCCc1nc2cc(C)c(C)cc2[nH]1)(c1ccc(Br)cc1)C(C)C (centres unmarked) [Embodiment 12] | IC50 [1, 4]: 53 ± 4.87 nM |
| 94.5 ± 1.2% | 250 ± 10 nM | COC(=O)C(CCCN(C)CCCc1nc2cc(OC)ccc2[nH]1)(c1ccc(Br)cc1)C(C)C (centres unmarked) [Embodiment 13] |  |

More lines, now with the values behind:

| Compound | inhibition at 10 µM [1, 5] | IC50 [1, 6] | other results |
| --- | --- | --- | --- |
| COC(=O)C(CCCN(C)CCCc1nc2cc(OC)ccc2[nH]1)(c1ccc(OC)cc1)C(C)C (centres unmarked) [Embodiment 5] | 91.7 ± 1.9% | 880 ± 70 nM |  |
| CCOC(=O)C(CCCN1CCN(Cc2ccc(OC)cc2)CC1)(c1ccccc1)C(C)C (centres unmarked) [Embodiment 23, ethyl 2-isopropyl-5-(4-(4-methoxybenzyl)piperazine-1-yl)-2-phenylpentanoate] | 96.3 ± 1.7% | 340 ± 20 nM |  |
| CCOC(=O)C(CCCN1CCN(Cc2ccc(F)cc2)CC1)(c1ccccc1)C(C)C (centres unmarked) [Embodiment 26, ethyl 5-(4-(4-fluorobenzyl)piperazine-1-yl)-2-isopropyl-2-phenylpentanoate] | 94 ± 2.5% | 260 ± 30 nM |  |
| COC(=O)C(CCCN1CCN(Cc2ccccc2F)CC1)(c1ccc(Br)cc1)C(C)C (centres unmarked) [Embodiment 30, methyl 2-(4-bromophenyl)-5-(4-(2-fluorobenzyl)piperazine-1-yl)-2-isopropylpentanoate] | 90.4 ± 3.2% | 740 ± 20 nM |  |
| COC(=O)C(CCCN1CCN(Cc2cccc(F)c2)CC1)(c1ccc(Br)cc1)C(C)C (centres unmarked) [Embodiment 31, methyl 2-(4-bromophenyl)-5-(4-(3-fluorobenzyl)piperazine-1-yl)-2-isopropylpentanoate] | 89.3 ± 1.6% | 980 ± 110 nM |  |
| COC(=O)C(CCCN1CCN(Cc2ccc(F)cc2)CC1)(c1ccc(Br)cc1)C(C)C (centres unmarked) [Embodiment 32, methyl 2-(4-bromophenyl)-5-(4-(4-fluorobenzyl)piperazine-1-yl)-2-isopropylpentanoate] | 96.5 ± 1.7% | 1110 ± 50 nM |  |
| COC(=O)C(CCCN1CCN(Cc2ccc(C(F)(F)F)cc2)CC1)(c1ccc(Br)cc1)C(C)C (centres unmarked) [Embodiment 34, methyl 2-(4-bromophenyl)-2-isopropyl-5-(4-(4-(trifluoromethyl)benzyl)piperazine-1-yl)pentanoate] |  |  | IC50 [1]: 280 ± 20 nM; inhibition at 10 µM ([1]; HEK293, read-out: % inhibition rate (10 μM)): 93 ± 1.5% |
| COC(=O)C(CCCN1CCN(c2ccccc2OC)CC1)(c1ccc(Br)cc1)C(C)C (centres unmarked) [Embodiment 35, methyl 2-(4-bromophenyl)-2-isopropyl-5-(4-(2-methoxyphenyl)piperazine-1-yl)pentanoate] | 94.1 ± 1.5% |  | IC50 [1, 4]: 95 ± 14.8 nM |
| COC(=O)C(CCCN1CCN(Cc2ccc(OC)cc2)CC1)(c1ccc(Br)cc1)C(C)C (centres unmarked) [Embodiment 38, methyl 2-(4-bromophenyl)-2-isopropyl-5-(4-(4-methoxybenzyl)piperazine-1-yl)pentanoate] | 96 ± 1.7% | 480 ± 80 nM |  |
| COC(=O)C(CCCN1CCN(Cc2ccc(OC)c(OC)c2OC)CC1)(c1ccc(Br)cc1)C(C)C (centres unmarked) [Embodiment 39, methyl 2-(4-bromophenyl)-2-isopropyl-5-(4-(2,3,4-trimethoxybenzyl)piperazine-1-yl)pentanoate] | 95.1 ± 1.9% | 320 ± 10 nM |  |
| COC(=O)C(CCCN1CCN(Cc2cccc(C)c2)CC1)(c1ccc(Br)cc1)C(C)C (centres unmarked) [Embodiment 40, methyl 2-(4-bromophenyl)-2-isopropyl-5-(4-(3-methylbenzyl)piperazine-1-yl)pentanoate] | 94.9 ± 1.5% | 390 ± 30 nM |  |
| CCC1(C)CC(=O)NC1=O (centres unmarked) [Ethosuximide] |  |  | reversal of mechanic and thermal induction [2]: dosage-dependent reversed mechanic and thermal induction |
| COCC(=O)O[C@]1(CCN(C)CCCc2nc3ccccc3[nH]2)CCc2cc(F)ccc2[C@@H]1C(C)C [mibefradil] | 95.9 ± 1.7% |  | more inhibitory activity to the T-type than to the L-type [3]: 10 to 30 times; reversal of mechanic and thermal induction [2]: dosage-dependent reversed mechanic and thermal induction |
